# Data published in patent US11298333B1, “Methods of reducing the risk of cardiovascular events in a subject” (Amarin Pharmaceuticals Ireland Limited, priority 2018, dated 2022).
# System: hypertriglyceridemic patients with cardiovascular disease or at high risk for cardiovascular disease
# Assay: REDUCE-IT: safety, treatment-emergent adverse events (incl. bleeding and gastrointestinal TEAEs)
# [1] = gastrointestinal TEAE, Safety population N = 4089
# [2] = gastrointestinal TEAE, number of patients, Safety population N = 4089
# [3] = most frequent TEAEs (≥5%), N = 4089
# [4] = no significant increase vs placebo
# [5] = serious bleeding TEAE by preferred term, N = 4089
# [6] = serious bleeding TEAE by preferred term, number of patients, N = 4089
# [7] = serious bleeding TEAE, N = 4089
# [8] = serious bleeding TEAE, number of patients, N = 4089
# [9] = significantly higher than placebo
# Procedure: Specification of Variables and Procedures: Safety assessments included adverse events, clinical laboratory measurements (chemistry, hematology), 12-lead ECGs, vital signs (systolic and diastolic blood pressure, heart rate, respiratory rate, and body temperature), weight, waist circumference, and physical examinations as per Study Procedures in Table 1. […] All laboratory test results were evaluated by the investigator as to their clinical significance. Any observations at physical examinations or laboratory values considered by the investigator to be clinically significant were considered an adverse event.
# An adverse event can therefore be any unfavorable and/or unintended sign (including an abnormal laboratory finding), symptom, or disease temporally associated with the use of an investigational medication product, whether or not related to the investigational medication product. All adverse events, including observed or volunteered problems, complaints, or symptoms, were recorded on the appropriate CRF. Each adverse event was evaluated for duration, intensity, and causal relationship with the study medication or other factors.
# Serious Adverse Events: A serious adverse event (SAE) is defined as an adverse event that meets any of the following criteria: • Results in death; • Is life-threatening—The term “life-threatening” in the definition of “serious” refers to an event in which the patient was at risk of death at the time of the event. […] Important medical events that may not result in death, be life threatening, or require hospitalization were considered an SAE when, based upon appropriate medical judgment, they may have jeopardized the patient and may have required medical or surgical intervention to prevent one of the outcomes listed above.
# Adverse Events of Special Interest: Bleeding-related adverse events, glucose control (fasting blood glucose and HbA1c), and indicators of hepatic disorders (e.g., ALT or AST increases >3×ULN, total bilirubin increases of ≥2×ULN) were summarized separately and compared between treatment groups.
# Analysis of Safety: All analyses of safety were conducted on the safety population, which was defined as all randomized patients. The safety assessment was based on the frequency of adverse events, physical exams, vital signs and safety laboratory tests. AEs with new onset during the study between the initiation of study drug and 30 days after the last dose of study drug for each patient was considered treatment-emergent (TEAEs). This included any AE with onset prior to initiation of study drug and increased severity after the treatment initiation.
# This included overall incidence rates (regardless of severity and relationship to study drug), and incidence rates for moderate or severe adverse events. A summary of SAEs and adverse events leading to early discontinuation (for ≥30 days) were presented through data listings. Patients who restarted study drug were included in the summary of AEs leading to discontinuation. Safety laboratory tests and vital signs were summarized by post-treatment change from baseline for each of the parameters using descriptive statistics by treatment group. Those patients with significant laboratory abnormalities were identified in data listings. Additional safety parameters were summarized in data listings.
compound,measurement,setting,value
"CC/C=C\C/C=C\C/C=C\C/C=C\C/C=C\CCCC(=O)OCC [Icosapent Ethyl, eicosapentaenoic acid ethyl ester]",Overall adverse event rates compared with placebo,4 grams daily,similar
same,Positively Adjudicated Atrial Fibrillation/Flutter (hospitalization),N = 4089,127 (3.1%) n (%)
same,Serious TEAE (≥2%) Pneumonia,N = 4089,105 (2.6%) n (%)
same,Serious TEAE,Safety population N = 4089,1252 (30.6%) n (%)
same,Serious TEAE Leading to Death,Safety population N = 4089,94 (2.3%) n (%)
same,Serious TEAE Leading to Withdrawal of Study Drug,Safety population N = 4089,88 (2.2%) n (%)
same,Serious bleeding TEAE: Bleeding related disorders,Safety population N = 4089,111 (2.7%) n (%)
same,Serious bleeding TEAE: Central nervous system bleeding,Safety population N = 4089,14 (0.3%) n (%)
same,Serious bleeding TEAE: Gastrointestinal bleeding,Safety population N = 4089,62 (1.5%) n (%)
same,Serious bleeding TEAE: Other bleeding,Safety population N = 4089,41 (1.0%) n (%)
same,Subjects with at Least One TEAE,Safety population N = 4089,3343 (81.8%) n (%)
same,TEAE Leading to Withdrawal of Study Drug,Safety population N = 4089,321 (7.9%) n (%)
same,"Constipation (TEAE), percentage of patients",[1],(5.4%)
same,"Diarrhea (TEAE), percentage of patients",[1],(9.0%)
same,"Gastroesophageal Reflux Disease (TEAE), percentage of patients",[1],(3.0%)
same,"Gastrointestinal disorders (TEAE), percentage of patients",[1],(33.0%)
same,"Nausea (TEAE), percentage of patients",[1],(4.6%)
same,"Constipation (TEAE), patients",[2],221
same,"Diarrhea (TEAE), patients",[2],367
same,"Gastroesophageal Reflux Disease (TEAE), patients",[2],124
same,"Gastrointestinal disorders (TEAE), patients",[2],1350
same,"Nausea (TEAE), patients",[2],190
same,"Treatment-emergent serious adverse events for bleeding, rate",in vivo,2.7%
same,Rate of anemia (adverse event),lower than placebo,4.7%
same,Rate of diarrhea (adverse event),lower than placebo,9%
same,Rate of gastrointestinal adverse events,lower than placebo,33.0%
same,TEAE Anemia,[3],191 (4.7%) n (%)
same,TEAE Angina pectoris,[3],200 (4.9%) n (%)
same,TEAE Arthralgia,[3],313 (7.7%) n (%)
same,TEAE Atrial fibrillation,[3],215 (5.3%) n (%)
same,TEAE Back pain,[3],335 (8.2%) n (%)
same,TEAE Bronchitis,[3],306 (7.5%) n (%)
same,TEAE Cataract,[3],233 (5.7%) n (%)
same,TEAE Chest pain,[3],273 (6.7%) n (%)
same,TEAE Constipation,[3],221 (5.4%) n (%)
same,TEAE Cough,[3],241 (5.9%) n (%)
same,TEAE Diarrhea,[3],367 (9.0%) n (%)
same,TEAE Dizziness,[3],235 (5.7%) n (%)
same,TEAE Dyspnea,[3],254 (6.2%) n (%)
same,TEAE Fatigue,[3],228 (5.6%) n (%)
same,TEAE Hypertension,[3],320 (7.8%) n (%)
same,TEAE Influenza,[3],263 (6.4%) n (%)
same,TEAE Nasopharyngitis,[3],314 (7.7%) n (%)
same,TEAE Osteoarthritis,[3],241 (5.9%) n (%)
same,TEAE Pain in extremity,[3],235 (5.7%) n (%)
same,TEAE Peripheral edema,[3],267 (6.5%) n (%)
same,TEAE Pneumonia,[3],263 (6.4%) n (%)
same,Tolerability,no significant difference in rates of serious adverse events versus placebo,well tolerated
same,"Serious central nervous system bleeding, rate",[4],0.3%
same,"Serious gastrointestinal bleeding, rate",[4],1.5%
same,"Serious adverse event pneumonia, rate",only serious adverse event at frequency ≥2%,2.6%
same,"Aortic Aneurysm Rupture, percentage",[5],(0.0%)
same,"Brain Contusion, percentage",[5],(0.0%)
same,"Catheter Site Hemorrhage, percentage",[5],(0.0%)
same,"Cerebral Hemorrhage, percentage",[5],(0.0%)
same,"Cystitis Hemorrhagic, percentage",[5],(0.0%)
same,"Diverticulitis Intestinal Hemorrhagic, percentage",[5],(0.0%)
same,"Diverticulum Intestinal Hemorrhagic, percentage",[5],(0.1%)
same,"Duodenal Ulcer Hemorrhage, percentage",[5],(0.0%)
same,"Ecchymosis, percentage",[5],(0.0%)
same,"Epistaxis, percentage",[5],(0.2%)
same,"Esophageal Hemorrhage, percentage",[5],(0.0%)
same,"Extravasation Blood, percentage",[5],(0.0%)
same,"Gastric Hemorrhage, percentage",[5],(0.0%)
same,"Gastric Ulcer Hemorrhage, percentage",[5],(0.1%)
same,"Gastrointestinal Angiodysplasia Hemorrhagic, percentage",[5],(0.0%)
same,"Gastrointestinal Hemorrhage, percentage",[5],(0.6%)
same,"Genital Hemorrhage, percentage",[5],(0.0%)
same,"Hemarthrosis, percentage",[5],(0.0%)
same,"Hematemesis, percentage",[5],(0.1%)
same,"Hematochezia, percentage",[5],(0.0%)
same,"Hematoma, percentage",[5],(0.0%)
same,"Hematuria, percentage",[5],(0.2%)
same,"Hemoptysis, percentage",[5],(0.0%)
same,"Hemorrhagic Anemia, percentage",[5],(0.1%)
same,"Hemorrhagic Duodenitis, percentage",[5],(0.0%)
same,"Hemorrhagic Transformation Stroke, percentage",[5],(0.0%)
same,"Hemorrhoidal Hemorrhage, percentage",[5],(0.1%)
same,"Hemothorax, percentage",[5],(0.0%)
same,"Immune Thrombocytopenic Purpura, percentage",[5],(0.0%)
same,"Intra-Abdominal Hemorrhage, percentage",[5],(0.0%)
same,"Intracranial Hemorrhage, percentage",[5],(0.0%)
same,"Large Intestinal Hemorrhage, percentage",[5],(0.0%)
same,"Lower Gastrointestinal Hemorrhage, percentage",[5],(0.1%)
same,"Mallory-Weiss Syndrome, percentage",[5],(0.0%)
same,"Melaena, percentage",[5],(0.1%)
same,"Menorrhagia, percentage",[5],(0.0%)
same,"Mouth Hemorrhage, percentage",[5],(0.0%)
same,"Pancreatitis Hemorrhagic, percentage",[5],(0.0%)
same,"Peptic Ulcer Hemorrhage, percentage",[5],(0.0%)
same,"Pericardial Hemorrhage, percentage",[5],(0.0%)
same,"Post Procedural Hematoma, percentage",[5],(0.0%)
same,"Post Procedural Hematuria, percentage",[5],(0.0%)
same,"Post Procedural Hemorrhage, percentage",[5],(0.1%)
same,"Rectal Hemorrhage, percentage",[5],(0.2%)
same,"Renal Hemorrhage, percentage",[5],(0.0%)
same,"Retinal Hemorrhage, percentage",[5],(0.0%)
same,"Retroperitoneal Hematoma, percentage",[5],(0.0%)
same,"Retroperitoneal Hemorrhage, percentage",[5],(0.0%)
same,"Shock Hemorrhagic, percentage",[5],(0.0%)
same,"Subarachnoid Hemorrhage, percentage",[5],(0.0%)
same,"Subdural Hematoma, percentage",[5],(0.2%)
same,"Subdural Hemorrhage, percentage",[5],(0.0%)
same,"Traumatic Hematoma, percentage",[5],(0.0%)
same,"Traumatic Intracranial Hemorrhage, percentage",[5],(0.0%)
same,"Ulcer Hemorrhage, percentage",[5],(0.0%)
same,"Upper Gastrointestinal Hemorrhage, percentage",[5],(0.1%)
same,"Urinary Bladder Hemorrhage, percentage",[5],(0.0%)
same,"Aortic Aneurysm Rupture, patients",[6],1
same,"Brain Contusion, patients",[6],0
same,"Catheter Site Hemorrhage, patients",[6],0
same,"Cerebral Hemorrhage, patients",[6],0
same,"Cystitis Hemorrhagic, patients",[6],2
same,"Diverticulitis Intestinal Hemorrhagic, patients",[6],0
same,"Diverticulum Intestinal Hemorrhagic, patients",[6],3
same,"Duodenal Ulcer Hemorrhage, patients",[6],2
same,"Ecchymosis, patients",[6],1
same,"Epistaxis, patients",[6],7
same,"Esophageal Hemorrhage, patients",[6],0
same,"Extravasation Blood, patients",[6],1
same,"Gastric Hemorrhage, patients",[6],1
same,"Gastric Ulcer Hemorrhage, patients",[6],3
same,"Gastrointestinal Angiodysplasia Hemorrhagic, patients",[6],1
same,"Gastrointestinal Hemorrhage, patients",[6],26
same,"Genital Hemorrhage, patients",[6],1
same,"Hemarthrosis, patients",[6],0
same,"Hematemesis, patients",[6],3
same,"Hematochezia, patients",[6],1
same,"Hematoma, patients",[6],1
same,"Hematuria, patients",[6],8
same,"Hemoptysis, patients",[6],1
same,"Hemorrhagic Anemia, patients",[6],4
same,"Hemorrhagic Duodenitis, patients",[6],0
same,"Hemorrhagic Transformation Stroke, patients",[6],1
same,"Hemorrhoidal Hemorrhage, patients",[6],3
same,"Hemothorax, patients",[6],1
same,"Immune Thrombocytopenic Purpura, patients",[6],0
same,"Intra-Abdominal Hemorrhage, patients",[6],1
same,"Intracranial Hemorrhage, patients",[6],0
same,"Large Intestinal Hemorrhage, patients",[6],1
same,"Lower Gastrointestinal Hemorrhage, patients",[6],5
same,"Mallory-Weiss Syndrome, patients",[6],1
same,"Melaena, patients",[6],3
same,"Menorrhagia, patients",[6],1
same,"Mouth Hemorrhage, patients",[6],0
same,"Pancreatitis Hemorrhagic, patients",[6],1
same,"Peptic Ulcer Hemorrhage, patients",[6],1
same,"Pericardial Hemorrhage, patients",[6],0
same,"Post Procedural Hematoma, patients",[6],1
same,"Post Procedural Hematuria, patients",[6],0
same,"Post Procedural Hemorrhage, patients",[6],5
same,"Rectal Hemorrhage, patients",[6],10
same,"Renal Hemorrhage, patients",[6],0
same,"Retinal Hemorrhage, patients",[6],1
same,"Retroperitoneal Hematoma, patients",[6],0
same,"Retroperitoneal Hemorrhage, patients",[6],1
same,"Shock Hemorrhagic, patients",[6],2
same,"Subarachnoid Hemorrhage, patients",[6],2
same,"Subdural Hematoma, patients",[6],9
same,"Subdural Hemorrhage, patients",[6],2
same,"Traumatic Hematoma, patients",[6],2
same,"Traumatic Intracranial Hemorrhage, patients",[6],0
same,"Ulcer Hemorrhage, patients",[6],1
same,"Upper Gastrointestinal Hemorrhage, patients",[6],3
same,"Urinary Bladder Hemorrhage, patients",[6],1
same,"Central Nervous System Bleeding (category), percentage",[7],(0.3%)
same,"Gastrointestinal Bleeding (category), percentage",[7],(1.5%)
same,"Other Bleeding (category), percentage",[7],(1.0%)
same,"Patients with Bleeding-Related Disorders, percentage",[7],(2.7%)
same,"Central Nervous System Bleeding (category), patients",[8],14
same,"Gastrointestinal Bleeding (category), patients",[8],62
same,"Other Bleeding (category), patients",[8],41
same,"Patients with Bleeding-Related Disorders, patients",[8],111
same,Rate of atrial fibrillation (adverse event),[9],5.3%
same,Rate of peripheral edema (adverse event),[9],6.5%
